Compound in one assay: CN1CC[C@H](c2c(O)cc(O)c3c(=O)cc(-c4ccccc4Cl)oc23)[C@H](O)C1 [FLAVOPIRIDOL]
Description: surviving fraction relative to DMSO-only wells; higher = less growth inhibition. The conditions noted are these: exposure time: 5 days. The method in brief: (§1)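 Luminescence normalised to the median of DMSO-only wells defines surviving fraction, with viability read by CellTiter-Glo. Signal was recorded after 10 minutes at room temperature, once log-phase tumour cell lines seeded at 250–500 cells per well in 384-well plates had spent 24 hours settling and then five days under continuous exposure to inhibitors at 0.5, 1, 5, 10, 50, 100, 500 and 1000 nM.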

Compound in the next assay: COc1ccc(C2=N[C@@H](c3ccc(Cl)cc3)[C@@H](c3ccc(Cl)cc3)N2C(=O)N2CCNC(=O)C2)c(OC(C)C)c1 [NUTLIN3]
The description is as above. The conditions noted are these: exposure time: 5 days. The method in brief: as §1

± gives the standard deviation of the averaged measurements.

These results are taken from the supplement of paper PMC6045584.

Regarding G292 BONE, the surviving fraction was 0.97 ± 0.068 in the assay with FLAVOPIRIDOL (0.5 nM); 0.987 ± 0.057 in the assay with FLAVOPIRIDOL (1 nM); 1.033 ± 0.0078 with FLAVOPIRIDOL (5 nM); 0.995 ± 0.024 with FLAVOPIRIDOL (10 nM); 0.628 ± 0.039 with FLAVOPIRIDOL (50 nM); 0.18 ± 0.0055 with FLAVOPIRIDOL (100 nM). The surviving fraction with FLAVOPIRIDOL (500 nM) is 0.0742 ± 0.0043; with FLAVOPIRIDOL (1000 nM) it was 0.0712 ± 0.0055; in the assay with NUTLIN3 (0.5 nM), 0.982 ± 0.028; in the assay with NUTLIN3 (1 nM), 0.955 ± 0.03; with NUTLIN3 (5 nM), 1.06 ± 0.047; with NUTLIN3 (10 nM), 1.05 ± 0.032. The surviving fraction with NUTLIN3 (50 nM) was found to be 1.03 ± 0.044; with NUTLIN3 (100 nM) it was 0.989 ± 0.026; with NUTLIN3 (500 nM) it was 1.01 ± 0.045; with NUTLIN3 (1000 nM), 0.979 ± 0.054.

For HCC38 BREAST, the surviving fraction in the assay with FLAVOPIRIDOL (0.5 nM) was 1.18 ± 0.1; with FLAVOPIRIDOL (1 nM) it was 1.22 ± 0.13; with FLAVOPIRIDOL (5 nM) it was 1.33 ± 0.097; with FLAVOPIRIDOL (10 nM) it was 1.34 ± 0.21; with FLAVOPIRIDOL (50 nM), 1.02 ± 0.15; in the assay with FLAVOPIRIDOL (100 nM), 0.571 ± 0.18. Besides, the surviving fraction in the assay with FLAVOPIRIDOL (500 nM) was found to be 0.046 ± 0.0053; with FLAVOPIRIDOL (1000 nM) it was 0.0423 ± 0.0093; with NUTLIN3 (0.5 nM), 1.19 ± 0.29; in the assay with NUTLIN3 (1 nM), 1.23 ± 0.12; in the assay with NUTLIN3 (5 nM), 1.35 ± 0.062; with NUTLIN3 (10 nM), 1.29 ± 0.12. Besides, the surviving fraction with NUTLIN3 (50 nM) is 1.28 ± 0.14; with NUTLIN3 (100 nM), 1.28 ± 0.11; with NUTLIN3 (500 nM) it was 1.22 ± 0.22; in the assay with NUTLIN3 (1000 nM) it was 1.26 ± 0.25.

As for HCC70 BREAST, the surviving fraction with FLAVOPIRIDOL (0.5 nM) was 1.03 ± 0.06; in the assay with FLAVOPIRIDOL (1 nM), 1.02 ± 0.11; with FLAVOPIRIDOL (5 nM) it was 1.06 ± 0.1; with FLAVOPIRIDOL (10 nM), 1.01 ± 0.11; with FLAVOPIRIDOL (50 nM), 0.784 ± 0.1; with FLAVOPIRIDOL (100 nM), 0.129 ± 0.078. Further, the surviving fraction came to 0.0557 ± 0.032 in the assay with FLAVOPIRIDOL (500 nM); 0.0423 ± 0.019 with FLAVOPIRIDOL (1000 nM); 1.03 ± 0.094 with NUTLIN3 (0.5 nM); 1.03 ± 0.043 with NUTLIN3 (1 nM); 1.02 ± 0.063 in the assay with NUTLIN3 (5 nM); 1.05 ± 0.087 in the assay with NUTLIN3 (10 nM). Besides, the surviving fraction in the assay with NUTLIN3 (50 nM) came to 1.07 ± 0.085; with NUTLIN3 (100 nM), 1.14 ± 0.055; with NUTLIN3 (500 nM), 1.04 ± 0.073; with NUTLIN3 (1000 nM), 1.07 ± 0.084.

In the case of HMLE3 BREAST, the surviving fraction stood at 1.07 ± 0.088 with FLAVOPIRIDOL (0.5 nM); 0.951 ± 0.097 in the assay with FLAVOPIRIDOL (1 nM); 1.16 ± 0.087 with FLAVOPIRIDOL (5 nM); 1.11 ± 0.097 in the assay with FLAVOPIRIDOL (10 nM); 0.771 ± 0.074 with FLAVOPIRIDOL (50 nM); 0.131 ± 0.029 in the assay with FLAVOPIRIDOL (100 nM). In addition, the surviving fraction came to 0.026 ± 0.0036 with FLAVOPIRIDOL (500 nM); 0.0233 ± 0.0015 with FLAVOPIRIDOL (1000 nM); 0.967 ± 0.059 with NUTLIN3 (0.5 nM); 0.985 ± 0.041 in the assay with NUTLIN3 (1 nM); 1.02 ± 0.028 with NUTLIN3 (5 nM); 0.996 ± 0.085 with NUTLIN3 (10 nM). In addition, the surviving fraction with NUTLIN3 (50 nM) was 0.982 ± 0.046; in the assay with NUTLIN3 (100 nM), 0.995 ± 0.043; with NUTLIN3 (500 nM), 0.964 ± 0.025; in the assay with NUTLIN3 (1000 nM), 1.02 ± 0.024.

For the test system HMT3552 BREAST, the surviving fraction is 1.06 ± 0.041 in the assay with FLAVOPIRIDOL (0.5 nM); 1.05 ± 0.045 in the assay with FLAVOPIRIDOL (1 nM); 0.986 ± 0.071 with FLAVOPIRIDOL (5 nM); 0.963 ± 0.027 in the assay with FLAVOPIRIDOL (10 nM); 0.232 ± 0.019 in the assay with FLAVOPIRIDOL (50 nM); 0.068 ± 0.0027 with FLAVOPIRIDOL (100 nM). Besides, the surviving fraction with FLAVOPIRIDOL (500 nM) worked out at 0.066 ± 0.003; with FLAVOPIRIDOL (1000 nM) it was 0.061 ± 0.0027; with NUTLIN3 (0.5 nM), 0.97; with NUTLIN3 (1 nM) it was 0.984; with NUTLIN3 (5 nM), 1; with NUTLIN3 (10 nM) it was 1. In addition, the surviving fraction with NUTLIN3 (50 nM) was found to be 1.19; in the assay with NUTLIN3 (100 nM), 1.21; in the assay with NUTLIN3 (500 nM) it was 1.12; in the assay with NUTLIN3 (1000 nM), 1.14.

As to HS57T BREAST, the surviving fraction in the assay with FLAVOPIRIDOL (0.5 nM) came to 1.06 ± 0.053; in the assay with FLAVOPIRIDOL (1 nM) it was 1.06 ± 0.015; with FLAVOPIRIDOL (5 nM) it was 1.12 ± 0.037; in the assay with FLAVOPIRIDOL (10 nM), 1.16 ± 0.035; with FLAVOPIRIDOL (50 nM) it was 0.667 ± 0.018; with FLAVOPIRIDOL (100 nM), 0.0337 ± 0.0025. For the same test system, the surviving fraction with FLAVOPIRIDOL (500 nM) came to 0.036 ± 0.001; with FLAVOPIRIDOL (1000 nM), 0.0327 ± 0.0021; in the assay with NUTLIN3 (0.5 nM) it was 0.965 ± 0.045; in the assay with NUTLIN3 (1 nM) it was 0.991 ± 0.018; in the assay with NUTLIN3 (5 nM), 1.01 ± 0.045; with NUTLIN3 (10 nM), 1.04 ± 0.046. Moreover, the surviving fraction was found to be 1.01 ± 0.023 with NUTLIN3 (50 nM), 1.12 ± 0.033 in the assay with NUTLIN3 (100 nM), 1.06 ± 0.027 with NUTLIN3 (500 nM) and 1.04 ± 0.071 with NUTLIN3 (1000 nM).

For HS578T BREAST, the surviving fraction stood at 1.13 ± 0.054 in the assay with FLAVOPIRIDOL (0.5 nM); 1.21 ± 0.13 with FLAVOPIRIDOL (1 nM); 1.19 ± 0.29 with FLAVOPIRIDOL (5 nM); 1.21 ± 0.2 with FLAVOPIRIDOL (10 nM); 0.667 ± 0.08 with FLAVOPIRIDOL (50 nM); 0.0923 ± 0.01 with FLAVOPIRIDOL (100 nM). The surviving fraction turned out to be 0.068 ± 0.0036 in the assay with FLAVOPIRIDOL (500 nM); 0.0673 ± 0.0025 with FLAVOPIRIDOL (1000 nM); 1.11 ± 0.067 with NUTLIN3 (0.5 nM); 0.926 ± 0.069 with NUTLIN3 (1 nM); 0.883 ± 0.19 in the assay with NUTLIN3 (5 nM); 0.8973 ± 0.0049 with NUTLIN3 (10 nM). In addition, the surviving fraction was 0.92 ± 0.041 in the assay with NUTLIN3 (50 nM), 0.936 ± 0.072 with NUTLIN3 (100 nM), 0.913 ± 0.14 with NUTLIN3 (500 nM) and 0.921 ± 0.06 with NUTLIN3 (1000 nM).
